# Measured values from ChEMBL document CHEMBL4602617, “Discovery and optimization of heteroaryl piperazines as potent and selective PI3Kδ inhibitors” (Bioorg Med Chem Lett, 2020).
# pIC50: −log10 of the molar value.
# What was measured:
# [1] = target: Serine/threonine-protein kinase PAK 3 (Homo sapiens, UniProt O75914); test: Inhibition of recombinant full length human His-tagged PAK3 expressed in baculovirus expression system using serine/threonine-20 peptide as substrate incubated for 60 mins in presence of ATP by Z'-LYTE assay
# [2] = target: Macrophage colony-stimulating factor 1 receptor (Homo sapiens, UniProt P07333); test: Inhibition of recombinant human His-tagged CSF1R catalytic domain (538 to 910 residues) expressed in baculovirus expression system using tyrosine-1 peptide as substrate incubated for 60 mins in presence of ATP by Z'-LYTE assay
# [3] = target: Inhibitor of nuclear factor kappa-B kinase subunit beta (Homo sapiens, UniProt O14920); test: Inhibition of recombinant human full-length GST-tagged IKBKB expressed in baculovirus expression system using FRET-labeled Ser/Thr 05 peptide as substrate measured after 1 hr in presence of ATP by Z'-lyte assay
# [4] = target: NUAK family SNF1-like kinase 1 (Homo sapiens, UniProt O60285); test: Inhibition of recombinant full length His-tagged human NUAK1 expressed in baculovirus expression system using CHKtide as substrate after 1 hr in presence of ATP by Adapta assay
# [5] = target: Fibroblast growth factor receptor 2 (Homo sapiens, UniProt P21802); test: Inhibition of recombinant His-tagged human FGFR2 (403 to 822 residues) cytoplasmic domain expressed in baculovirus expression system using Tyr 04 peptide as substrate after 1 hr in presence of ATP by Z'-LYTE assay
# [6] = target: Phosphatidylinositol 4-kinase alpha (Homo sapiens, UniProt P42356); test: Inhibition of recombinant full length human N-terminal GST-tagged PI4KA expressed in baculovirus expression system using PI lipid as substrate incubated for 60 mins in presence of ATP by Adapta assay
# [7] = target: Protein kinase C iota type (Homo sapiens, UniProt P41743); test: Inhibition of recombinant full length human His-tagged PRKCI expressed in baculovirus expression system using serine/threonine-7 peptide as substrate incubated for 60 mins in presence of ATP by Z'-LYTE assay
# [8] = target: Receptor-type tyrosine-protein kinase FLT3 (Homo sapiens, UniProt P36888, D835Y); test: Inhibition of recombinant human His-tagged FLT3 D835Y mutant cytoplasmic domain expressed in baculovirus expression system after 1 using tyrosine 2 as substrate after 1 hr in presence of ATP by ZYLTE assay
# [9] = target: Sodium channel protein type 5 subunit alpha (Homo sapiens, UniProt Q14524); test: Inhibition of Nav1.5 (unknown origin)
# [10] = target: Sodium-dependent dopamine transporter (Homo sapiens) (UniProt Q01959); test: Displacement of [125I]RTI-55 from full length recombinant human dopamine transporter expressed in CHO-S cells at 10 uM after 3 hrs by radiometric scintillation analysis relative to control; type: cell-based
# [11] = target: Ribosomal protein S6 kinase beta-1 (Homo sapiens, UniProt P23443); test: Inhibition of recombinant human GST-tagged p70S6K catalytic domain expressed in baculovirus expression system using serine/threonine-7 peptide as substrate incubated for 60 mins in presence of ATP by Z'-LYTE assay
# [12] = target: RAC-alpha serine/threonine-protein kinase (Homo sapiens, UniProt P31749); test: Inhibition of recombinant full length human His-tagged AKT1 expressed in baculovirus expression system using serine/threonine-06 peptide as substrate incubated for 60 mins in presence of ATP by Z'-LYTE assay
# [13] = target: Serine/threonine-protein kinase BRSK1 (Homo sapiens, UniProt Q8TDC3); test: Inhibition of recombinant GST-tagged human BRSK1 expressed in baculovirus expression system using Ser/Thr-21 as substrate after 1 hr in presence of ATP by Z'-LYTE assay
# [14] = target: Gastrin/cholecystokinin type B receptor (Homo sapiens) (UniProt P32239); test: Displacement of [125I]CCK-8 from recombinant full length human recombinant CCK2 expressed in Chem-1 cells at 10 uM measured after 3 hrs by radiometric scintillation analysis relative to control; type: cell-based
# [15] = target: Beta-adrenergic receptor kinase 1 (Homo sapiens, UniProt P25098); test: Inhibition of recombinant full length human His-tagged GRK2 expressed in baculovirus expression system using serine/threonine-16 peptide as substrate incubated for 60 mins in presence of ATP by Z'-LYTE assay
# Homo sapiens = species: Homo sapiens; test: Inhibition of recombinant human PKA expressed in Escherichia coli at 10 uM using peptide as substrate after 15 mins by radiometric scintillation analysis relative to control
# [16] = target: Glycogen synthase kinase-3 alpha (Homo sapiens, UniProt P49840); test: Inhibition of recombinant full length GST-tagged human GSK3alpha expressed in baculovirus expression system using Ser/Thr 09 peptide as substrate after 1 hr in presence of ATP by Z'LYTE assay
# [17] = target: Protein kinase C beta type (Homo sapiens, UniProt P05771); test: Inhibition of recombinant full length human GST-tagged PKCbeta1 expressed in insect expression system using serine/threonine-7 peptide as substrate incubated for 60 mins in presence of ATP by Z'-LYTE assay
# [18] = target: Tyrosine-protein kinase HCK (Homo sapiens, UniProt P08631); test: Inhibition of recombinant full length N-terminal GST-tagged human HCK expressed in baculovirus expression system using Tyr 02 as substrate after 1 hr in presence of ATP by Z'-LYTE assay
# Rattus norvegicus = species: Rattus norvegicus; test: Displacement of [3H]CGP-54626 from GABAB in Wistar rat whole brain at 10 uM incubated for 20 mins by radiometric scintillation analysis relative to control; type: tissue-based
# [19] = target: Dual specificity protein kinase CLK1 (Homo sapiens, UniProt P49759); test: Inhibition of recombinant human GST-tagged CLK1 catalytic domain (129 to 484 residues) expressed in Escherichia coli expression system using serine/threonine-9 peptide as substrate incubated for 60 mins in presence of ATP by Z'-LYTE assay
# [20] = target: Homeodomain-interacting protein kinase 2 (Homo sapiens, UniProt Q9H2X6); test: Inhibition of recombinant human GST-tagged HIPK2 expressed in baculovirus expression system using serine/threonine-9 peptide as substrate incubated for 60 mins in presence of ATP by Z'-LYTE assay
# [21] = target: Neuropeptide Y receptor type 2 (Homo sapiens) (UniProt P49146); test: Displacement of [[125I]peptide YY from full length human KAN-TS cell membrane derived Y2 neuropeptide receptor at 10 uM measured after 120 mins by radiometric scintillation analysis relative to control
# [22] = target: Serine/threonine-protein kinase PLK3 (Homo sapiens, UniProt Q9H4B4); test: Inhibition of recombinant human GST-tagged PLK3 catalytic domain (58 to 340 residues) expressed in baculovirus expression system using serine/threonine-16 peptide as substrate incubated for 60 mins in presence of ATP by Z'-LYTE assay
# [23] = target: Mitogen-activated protein kinase 14 (Homo sapiens, UniProt Q16539); test: Inhibition of recombinant full length GST-tagged human MAPK14 expressed in Escherichia coli using Ser/Thr 04 as substrate after 1 hr in presence of ATP by Z'LYTE assay
# [24] = Clearance in dog plasma at 0.5 mg/kg, iv or 1 mg/kg, po; type: ADME, organism-based, Canis lupus familiaris
# Sequence of Mitogen-activated protein kinase 14 (Q16539 whole entry): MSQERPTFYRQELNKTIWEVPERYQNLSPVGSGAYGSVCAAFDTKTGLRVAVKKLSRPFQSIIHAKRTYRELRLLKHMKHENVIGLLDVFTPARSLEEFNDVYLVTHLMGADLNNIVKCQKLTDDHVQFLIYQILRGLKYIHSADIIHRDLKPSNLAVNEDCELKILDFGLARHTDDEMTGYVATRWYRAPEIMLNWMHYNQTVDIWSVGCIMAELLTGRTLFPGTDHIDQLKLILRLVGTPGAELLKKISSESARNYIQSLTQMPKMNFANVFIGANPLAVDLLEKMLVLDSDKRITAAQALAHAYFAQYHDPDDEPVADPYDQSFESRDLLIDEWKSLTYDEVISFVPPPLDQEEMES
# Sequence of Dual specificity protein kinase CLK1 (P49759 whole entry, the tested form may be a part): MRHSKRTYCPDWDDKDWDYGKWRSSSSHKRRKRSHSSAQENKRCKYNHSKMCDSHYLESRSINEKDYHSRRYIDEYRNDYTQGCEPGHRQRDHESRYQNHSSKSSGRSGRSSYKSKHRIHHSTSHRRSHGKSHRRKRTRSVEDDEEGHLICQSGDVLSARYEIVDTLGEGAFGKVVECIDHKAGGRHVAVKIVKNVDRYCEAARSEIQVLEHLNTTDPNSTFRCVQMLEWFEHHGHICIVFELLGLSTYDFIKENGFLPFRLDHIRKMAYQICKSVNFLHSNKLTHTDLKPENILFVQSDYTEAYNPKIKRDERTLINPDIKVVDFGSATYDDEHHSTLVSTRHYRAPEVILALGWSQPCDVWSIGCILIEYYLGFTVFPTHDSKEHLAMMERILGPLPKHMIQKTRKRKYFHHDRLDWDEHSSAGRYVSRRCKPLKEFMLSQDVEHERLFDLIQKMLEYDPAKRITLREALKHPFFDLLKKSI
# Sequence of Fibroblast growth factor receptor 2 (P21802 whole entry, the tested form may be a part): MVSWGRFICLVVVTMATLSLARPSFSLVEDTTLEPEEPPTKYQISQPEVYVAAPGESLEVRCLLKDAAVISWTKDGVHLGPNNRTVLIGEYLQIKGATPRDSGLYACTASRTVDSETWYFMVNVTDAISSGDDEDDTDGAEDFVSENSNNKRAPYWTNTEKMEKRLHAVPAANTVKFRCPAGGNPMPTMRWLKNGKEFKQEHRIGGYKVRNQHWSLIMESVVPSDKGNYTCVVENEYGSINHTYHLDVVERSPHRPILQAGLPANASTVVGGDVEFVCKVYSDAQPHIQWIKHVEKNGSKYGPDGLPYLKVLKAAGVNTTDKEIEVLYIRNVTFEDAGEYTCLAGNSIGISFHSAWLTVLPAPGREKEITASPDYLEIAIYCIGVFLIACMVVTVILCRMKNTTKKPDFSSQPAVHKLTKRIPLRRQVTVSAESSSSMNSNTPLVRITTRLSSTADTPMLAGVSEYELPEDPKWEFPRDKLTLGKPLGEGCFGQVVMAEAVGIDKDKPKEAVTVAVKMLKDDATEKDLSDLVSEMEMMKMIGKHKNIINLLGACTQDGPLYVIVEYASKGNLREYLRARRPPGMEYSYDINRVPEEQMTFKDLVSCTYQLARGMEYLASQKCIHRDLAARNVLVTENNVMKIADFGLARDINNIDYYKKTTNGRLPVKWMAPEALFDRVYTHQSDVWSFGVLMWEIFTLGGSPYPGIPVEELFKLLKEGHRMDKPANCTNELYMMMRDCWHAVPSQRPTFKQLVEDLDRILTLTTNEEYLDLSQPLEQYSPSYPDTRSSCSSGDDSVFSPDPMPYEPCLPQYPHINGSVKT
# Sequence of Serine/threonine-protein kinase PLK3 (Q9H4B4 whole entry, the tested form may be a part): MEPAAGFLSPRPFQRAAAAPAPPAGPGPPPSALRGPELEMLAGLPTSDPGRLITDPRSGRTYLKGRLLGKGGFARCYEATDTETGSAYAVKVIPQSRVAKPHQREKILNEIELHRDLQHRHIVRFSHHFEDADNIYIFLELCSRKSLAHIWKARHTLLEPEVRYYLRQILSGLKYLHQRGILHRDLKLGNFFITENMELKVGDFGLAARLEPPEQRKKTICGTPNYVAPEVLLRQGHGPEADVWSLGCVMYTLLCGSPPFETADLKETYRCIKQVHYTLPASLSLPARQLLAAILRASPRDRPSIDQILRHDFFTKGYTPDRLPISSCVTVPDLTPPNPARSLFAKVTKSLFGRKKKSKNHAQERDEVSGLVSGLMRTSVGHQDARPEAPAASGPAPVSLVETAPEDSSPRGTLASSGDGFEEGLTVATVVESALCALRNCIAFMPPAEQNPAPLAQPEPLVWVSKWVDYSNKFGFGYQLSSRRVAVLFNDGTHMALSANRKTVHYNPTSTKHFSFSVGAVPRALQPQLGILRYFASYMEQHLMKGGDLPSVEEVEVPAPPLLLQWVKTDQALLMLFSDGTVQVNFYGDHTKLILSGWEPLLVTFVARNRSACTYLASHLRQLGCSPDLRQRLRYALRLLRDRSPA
# Sequence of Gastrin/cholecystokinin type B receptor (Homo sapiens) (P32239 whole entry): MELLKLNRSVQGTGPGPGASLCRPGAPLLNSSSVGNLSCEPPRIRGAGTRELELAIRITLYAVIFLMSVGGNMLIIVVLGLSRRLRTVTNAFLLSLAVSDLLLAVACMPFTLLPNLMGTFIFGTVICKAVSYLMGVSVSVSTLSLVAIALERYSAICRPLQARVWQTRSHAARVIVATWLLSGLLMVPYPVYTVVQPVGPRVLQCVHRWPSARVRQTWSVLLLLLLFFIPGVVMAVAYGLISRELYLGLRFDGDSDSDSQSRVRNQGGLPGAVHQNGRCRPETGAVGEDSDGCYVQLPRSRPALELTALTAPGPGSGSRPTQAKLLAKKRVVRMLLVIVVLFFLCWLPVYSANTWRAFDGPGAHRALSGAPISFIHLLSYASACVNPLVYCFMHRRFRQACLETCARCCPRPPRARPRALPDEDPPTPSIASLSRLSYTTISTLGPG
# Sequence of Phosphatidylinositol 4-kinase alpha (P42356 whole entry): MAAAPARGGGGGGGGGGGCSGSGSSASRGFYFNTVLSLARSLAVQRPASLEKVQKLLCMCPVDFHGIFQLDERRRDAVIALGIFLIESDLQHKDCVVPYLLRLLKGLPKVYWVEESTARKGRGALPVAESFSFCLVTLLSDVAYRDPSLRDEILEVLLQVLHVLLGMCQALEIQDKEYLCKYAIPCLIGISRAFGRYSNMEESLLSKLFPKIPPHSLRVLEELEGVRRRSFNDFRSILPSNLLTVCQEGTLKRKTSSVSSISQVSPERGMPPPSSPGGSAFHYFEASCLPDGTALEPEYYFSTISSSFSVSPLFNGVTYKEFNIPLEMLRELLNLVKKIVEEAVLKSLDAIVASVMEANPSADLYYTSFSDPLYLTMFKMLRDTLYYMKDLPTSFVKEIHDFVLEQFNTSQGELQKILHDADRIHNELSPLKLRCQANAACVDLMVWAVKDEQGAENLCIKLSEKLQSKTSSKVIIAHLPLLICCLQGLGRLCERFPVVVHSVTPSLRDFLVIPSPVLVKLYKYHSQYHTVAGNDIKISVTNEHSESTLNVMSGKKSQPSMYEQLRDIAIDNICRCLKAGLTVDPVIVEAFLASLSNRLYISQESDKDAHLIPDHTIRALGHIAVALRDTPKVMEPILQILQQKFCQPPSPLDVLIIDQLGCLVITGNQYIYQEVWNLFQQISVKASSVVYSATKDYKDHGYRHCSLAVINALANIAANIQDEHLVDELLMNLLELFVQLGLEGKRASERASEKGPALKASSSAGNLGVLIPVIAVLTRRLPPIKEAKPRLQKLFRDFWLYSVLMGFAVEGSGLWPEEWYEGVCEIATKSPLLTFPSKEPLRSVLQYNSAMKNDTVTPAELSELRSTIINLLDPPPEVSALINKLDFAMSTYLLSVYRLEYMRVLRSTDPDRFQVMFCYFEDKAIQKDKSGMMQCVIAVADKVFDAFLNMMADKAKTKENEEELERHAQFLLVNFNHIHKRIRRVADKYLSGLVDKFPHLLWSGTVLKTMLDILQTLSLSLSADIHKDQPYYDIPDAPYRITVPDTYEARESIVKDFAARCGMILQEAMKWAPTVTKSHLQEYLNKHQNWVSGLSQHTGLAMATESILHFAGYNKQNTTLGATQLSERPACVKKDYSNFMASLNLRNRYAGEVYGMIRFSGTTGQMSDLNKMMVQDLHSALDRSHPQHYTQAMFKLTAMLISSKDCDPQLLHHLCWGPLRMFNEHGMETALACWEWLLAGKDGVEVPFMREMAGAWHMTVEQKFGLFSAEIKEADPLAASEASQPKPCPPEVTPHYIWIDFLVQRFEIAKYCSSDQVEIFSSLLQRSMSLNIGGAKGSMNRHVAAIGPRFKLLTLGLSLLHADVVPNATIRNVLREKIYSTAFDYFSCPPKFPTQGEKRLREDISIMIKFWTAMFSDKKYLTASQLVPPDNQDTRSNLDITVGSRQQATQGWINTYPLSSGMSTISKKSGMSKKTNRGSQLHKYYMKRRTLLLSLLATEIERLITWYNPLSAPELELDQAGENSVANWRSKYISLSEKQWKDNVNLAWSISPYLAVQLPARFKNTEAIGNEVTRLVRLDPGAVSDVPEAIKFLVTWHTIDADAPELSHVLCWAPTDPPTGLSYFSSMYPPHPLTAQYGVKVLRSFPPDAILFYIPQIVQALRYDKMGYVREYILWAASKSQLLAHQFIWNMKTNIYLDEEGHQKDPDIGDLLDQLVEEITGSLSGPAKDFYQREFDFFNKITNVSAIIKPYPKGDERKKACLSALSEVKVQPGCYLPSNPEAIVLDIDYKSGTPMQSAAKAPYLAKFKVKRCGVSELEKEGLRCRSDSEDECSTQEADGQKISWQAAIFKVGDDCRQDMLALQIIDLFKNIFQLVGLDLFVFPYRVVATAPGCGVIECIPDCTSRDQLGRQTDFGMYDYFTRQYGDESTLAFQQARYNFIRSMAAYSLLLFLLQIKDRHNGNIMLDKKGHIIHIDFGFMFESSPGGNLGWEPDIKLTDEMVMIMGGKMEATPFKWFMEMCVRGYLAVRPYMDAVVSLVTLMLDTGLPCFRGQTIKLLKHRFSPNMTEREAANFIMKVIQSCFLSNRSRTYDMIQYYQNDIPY
compound,measurement,setting,value
C[C@@H]1C[C@H]1C(=O)N1CCN(c2cnc(C#N)c(-c3cnn(C)c3)n2)C[C@H]1C,pIC50,[1],< 4.00
same,pIC50,[2],< 4.00
same,pIC50,[3],< 4.00
same,pIC50,[4],< 4.00
same,pIC50,[5],< 4.00
same,pIC50,[6],< 4.00
same,pIC50,[7],< 4.00
same,pIC50,[8],< 4.00
same,pIC50,[9],< 4.52
same,inhibition,[10],1%
same,pIC50,[11],< 4.00
same,pIC50,[12],< 4.00
same,pIC50,[13],< 4.00
same,inhibition,[14],-4%
same,pIC50,[15],< 4.00
same,inhibition,Homo sapiens,-3%
same,pIC50,[16],4.58
same,pIC50,[17],< 4.00
same,pIC50,[18],4.42
same,inhibition,Rattus norvegicus,-2%
same,pIC50,[19],< 4.00
same,pIC50,[20],< 4.00
same,inhibition,[21],-2%
same,pIC50,[22],< 4.00
same,pIC50,[23],< 4.00
same,clearance,[24],8 mL/min/kg
